Assay results as given in ChEMBL document CHEMBL5543116, “Discovery of DNL343: A Potent, Selective, and Brain-Penetrant eIF2B Activator Designed for the Treatment of Neurodegenerative Diseases” (J Med Chem, 2024).
≈ marks a conversion by molar mass, not a printed value.

Tests used:
[1] = Kinetic solubility of compound; format: physicochemical; settings: read-out: Kinetic_solubility
[2] = Lipophilicity, log D of the compound at pH 7.4; format: physicochemical; settings: buffer
[3] = Metabolic stability in human liver microsome assessed as hepatic clearance; format: ADME; settings: liver microsomes
[4] = Oral bioavailability in rat at 3 mg/kg by LC-MS/MS analysis; format: ADME, organism-based; settings: in vivo
[5] = Clearance in rat at 1 mg/kg, iv by LC-MS/MS analysis; format: ADME, organism-based; settings: in vivo
[6] = Metabolic stability in rat liver microsome assessed as hepatic clearance; format: ADME; settings: liver microsomes
[7] = Volume of distribution at steady state in rat at 1 mg/kg, iv by LC-MS/MS analysis; format: ADME, organism-based; settings: in vivo, read-out: Vdss
[8] = Half life in rat at 1 mg/kg, iv by LC-MS/MS analysis; format: ADME, organism-based; settings: in vivo

Row | SMILES | solubility kinetic [1] [µM] | logD [2] | CLhep predicted [3] [mL/min/kg] | other results
1 | O=C(COc1ccc(Cl)cc1)N[C@H]1CC[C@H](NC(=O)COc2ccc(Cl)cc2)CC1 | < 1 | 3.7 | – | –
2 | O=C(NC12CC(c3nnc([C@H]4C[C@@H](OC(F)(F)F)C4)o3)(C1)C2)c1nc2cc(Cl)ccc2o1 | – | – | < 6 | –
3 | O=C(COc1ccc(Cl)cc1)NC12CC(NC(=O)COC3CCC3)(C1)C2 | 141 (≈ 53.4 µg/mL) | 2.9 | – | –
4 | O=C(COc1ccc(Cl)cc1)NC12CCC(NC(=O)COc3ccc(Cl)cc3)(CC1)C2 | < 1 | 4.6 | – | –
5 | O=C(NC12CC(c3nnc([C@H]4C[C@@H](OC(F)(F)F)C4)o3)(C1)C2)c1cnc2cc(Cl)ccc2c1 | – | – | 11 | –
6 | O=C(COc1ccc(Cl)cc1)NC12CC(NC(=O)COC3CC3)(C1)C2 | 181 (≈ 66 µg/mL) | 2.6 | – | –
7 | O=C(COCC1CC1)NC12CC(NC(=O)COc3ccc(Cl)cc3)(C1)C2 | 184 (≈ 69.7 µg/mL) | 2.9 | – | –

Further lines, with some results ahead:

Row | solubility kinetic [1] [µM] | logD [2] | CLhep predicted [3] [mL/min/kg] | SMILES | other results
8 | – | – | < 6 | O=C(COc1ccc(C(F)(F)F)cc1)NC12CC(c3nnc([C@H]4C[C@@H](OC(F)(F)F)C4)o3)(C1)C2 | bioavailability [4]: 39%; clearance [5]: 0.4 mL/min/kg; CLhep predicted [6]: < 17 mL/min/kg; Vd [7]: 0.26 L/kg; half-life [8]: 22.9 h
9 | – | – | 15 | O=C(COc1ccc(Cl)c(F)c1)NC12CC(N3C[C@H]([C@H]4C[C@@H](OC(F)(F)F)C4)OC3=O)(C1)C2 | –
10 | – | – | 12 | O=C(NC12CC(c3nnc([C@H]4C[C@@H](OC(F)(F)F)C4)o3)(C1)C2)C1CCc2cc(Cl)ccc2O1 (stereo not given in full) | –
